Data taken from US20220220103A1, “CYCLIN-DEPENDENT KINASE INHIBITORS” (SPV THERAPEUTICS INC., priority 2018, published 2022).

Tests used:
CDK4-CYCLIND1 = CDK4-CYCLIND1 (Homo sapiens, UniProt P11802); experiment: Microfluidic LabChip inhibition assay, CDK4-CYCLIND1; type: biochemical; details: Table 2; ATP 200 μM, 25° C.; read-out: CDK4 IC50
Method: (§1) The reaction was terminated by the addition of EDTA. The plates were analyzed using a Caliper LabChip 3000.
(§2) Additional inhibition assays were performed as described above.

CDK6-CYCLIND3 = CDK6-CYCLIND3 (Homo sapiens, UniProt Q00534); experiment: Microfluidic LabChip inhibition assay, CDK6-CYCLIND3; type: biochemical; details: Table 2; ATP 300 μM, 25° C.; read-out: CDK6 IC50
Method: as §1, §2

Chain of CDK4-CYCLIND1 (P11802 whole entry): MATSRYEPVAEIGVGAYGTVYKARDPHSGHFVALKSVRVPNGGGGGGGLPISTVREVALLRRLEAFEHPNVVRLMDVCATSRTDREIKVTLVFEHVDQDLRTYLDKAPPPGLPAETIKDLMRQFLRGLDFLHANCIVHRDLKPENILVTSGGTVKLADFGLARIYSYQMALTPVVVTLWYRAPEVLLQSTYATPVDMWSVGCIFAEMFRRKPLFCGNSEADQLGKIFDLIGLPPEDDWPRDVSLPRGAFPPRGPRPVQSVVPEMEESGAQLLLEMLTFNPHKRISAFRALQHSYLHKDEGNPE
Chain of CDK4-CYCLIND1 (P24385 whole entry partner): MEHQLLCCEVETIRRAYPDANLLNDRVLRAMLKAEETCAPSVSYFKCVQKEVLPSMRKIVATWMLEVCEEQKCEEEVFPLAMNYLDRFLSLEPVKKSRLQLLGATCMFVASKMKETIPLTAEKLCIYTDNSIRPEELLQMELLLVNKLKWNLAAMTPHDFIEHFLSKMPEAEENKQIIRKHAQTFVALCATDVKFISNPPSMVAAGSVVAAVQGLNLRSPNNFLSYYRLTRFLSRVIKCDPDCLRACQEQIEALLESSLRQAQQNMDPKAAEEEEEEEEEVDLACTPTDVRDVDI
Chain of CDK6-CYCLIND3 (Q00534 whole entry): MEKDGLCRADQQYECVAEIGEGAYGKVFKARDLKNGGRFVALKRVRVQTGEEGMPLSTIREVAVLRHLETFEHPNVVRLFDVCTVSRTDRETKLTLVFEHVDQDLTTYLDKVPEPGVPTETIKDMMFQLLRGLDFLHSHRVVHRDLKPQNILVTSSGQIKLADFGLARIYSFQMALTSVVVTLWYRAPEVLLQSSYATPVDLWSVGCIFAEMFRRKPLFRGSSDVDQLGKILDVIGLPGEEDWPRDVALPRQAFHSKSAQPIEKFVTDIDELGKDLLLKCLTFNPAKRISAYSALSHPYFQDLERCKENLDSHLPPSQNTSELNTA
Chain of CDK6-CYCLIND3 (P30281 whole entry partner): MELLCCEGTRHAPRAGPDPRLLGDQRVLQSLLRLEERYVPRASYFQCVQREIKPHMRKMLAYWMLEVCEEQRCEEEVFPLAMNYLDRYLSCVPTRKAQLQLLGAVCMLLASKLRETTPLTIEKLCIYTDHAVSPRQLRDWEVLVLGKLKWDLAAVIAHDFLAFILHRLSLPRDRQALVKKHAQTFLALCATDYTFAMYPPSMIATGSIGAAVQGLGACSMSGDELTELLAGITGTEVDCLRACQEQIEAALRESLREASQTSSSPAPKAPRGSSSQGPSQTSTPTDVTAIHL

SMILES	IC50 (CDK4-CYCLIND1) [nM]	IC50 (CDK6-CYCLIND3) [nM]
CN1CCN(c2ccc(Nc3ncc4cc(C#N)c(=O)n(C56CC(C5)C6)c4n3)cc2)CC1 [Compound B1, 8-(bicyclo[1.1.1]pentan-1-yl)-2-((4-(4-methylpiperazin-1-yl)phenyl)amino)-7-oxo-7,8-dihydropyrido[2,3-d]pyrimidine-6-carbonitrile]	31.1	41.5
N#Cc1cc2cnc(Nc3ccc(N4CCNCC4)cn3)nc2n(C23CC(C2)C3)c1=O [Compound B2, 8-(bicyclo[1.1.1]pentan-1-yl)-7-oxo-2-((5-(piperazin-1-yl)pyridin-2-yl)amino)-7,8-dihydropyrido[2,3-d]pyrimidine-6-carbonitrile]	307	253
CN1CCN(c2ccc(Nc3ncc4cc(C#N)c(=O)n(C56CC(C5)C6)c4n3)nc2)CC1 [Compound B3, 8-(bicyclo[1.1.1]pentan-1-yl)-2-((5-(4-methylpiperazin-1-yl)pyridin-2-yl)amino)-7-oxo-7,8-dihydropyrido[2,3-d]pyrimidine-6-carbonitrile]	504	432
CC(C)N1CCN(c2ccc(Nc3ncc4cc(C#N)c(=O)n(C56CC(C5)C6)c4n3)nc2)CC1 [Compound B4, 8-(bicyclo[1.1.1]pentan-1-yl)-2-((5-(4-isopropylpiperazin-1-yl)pyridin-2-yl)amino)-7-oxo-7,8-dihydropyrido[2,3-d]pyrimidine-6-carbonitrile]	213	154
CN1CCN(c2cnc(Nc3ncc4cc(C#N)c(=O)n(C5CCCC5)c4n3)cc2C(F)(F)F)CC1 [Compound B5, 8-cyclopentyl-2-((5-(4-methylpiperazin-1-yl)-4-(trifluoromethyl)pyridin-2-yl)amino)-7-oxo-7,8-dihydropyrido[2,3-d]pyrimidine-6-carbonitrile]	25700	≥ 30000
CN(C)CCOc1ccc(Nc2ncc3cc(C#N)c(=O)n(C4CCCC4)c3n2)nc1 [Compound B6, 8-cyclopentyl-2-((5-(2-(dimethylamino)ethoxy)pyridin-2-yl)amino)-7-oxo-7,8-dihydropyrido[2,3-d]pyrimidine-6-carbonitrile]	97.8	120
N#Cc1cc2cnc(Nc3ccc(OCCN4CCCC4)cn3)nc2n(C2CCCC2)c1=O [Compound B7, 8-cyclopentyl-7-oxo-2-((5-(2-(pyrrolidin-1-yl)ethoxy)pyridin-2-yl)amino)-7,8-dihydropyrido[2,3-d]pyrimidine-6-carbonitrile]	101	103
N#Cc1cc2cnc(Nc3ccc(OCCN4CCCCC4)nc3)nc2n(C2CCCC2)c1=O [Compound B8, 8-cyclopentyl-7-oxo-2-((6-(2-(piperidin-1-yl)ethoxy)pyridin-3-yl)amino)-7,8-dihydropyrido[2,3-d]pyrimidine-6-carbonitrile]	29.1	55.3
N#Cc1cc2cnc(Nc3ccc(C4=CCNCC4)cn3)nc2n(C2CCCC2)c1=O [Compound B9, 8-cyclopentyl-7-oxo-2-((1′,2′,3′,6′-tetrahydro-[3,4′-bipyridin]-6-yl)amino)-7,8-dihydropyrido[2,3-d]pyrimidine-6-carbonitrile]	33.8	37.2
N#Cc1cc2cnc(Nc3cc(C(F)(F)F)c(N4CCNCC4)cn3)nc2n(C2CCCC2)c1=O [Compound B10, 8-cyclopentyl-7-oxo-2-((5-(piperazin-1-yl)-4-(trifluoromethyl)pyridin-2-yl)amino)-7,8-dihydropyrido[2,3-d]pyrimidine-6-carbonitrile]	2820	9240
CN(C)CCOc1ccc(Nc2ncc3cc(C#N)c(=O)n(C4CCCC4)c3n2)cn1 [Compound B11, 8-cyclopentyl-2-((6-(2-(dimethylamino)ethoxy)pyridin-3-yl)amino)-7-oxo-7,8-dihydropyrido[2,3-d]pyrimidine-6-carbonitrile]	37.6	133
N#Cc1cc2cnc(Nc3ccc(OCCN4CCCCC4)cn3)nc2n(C2CCCC2)c1=O [Compound B12, 8-cyclopentyl-7-oxo-2-((5-(2-(piperidin-1-yl)ethoxy)pyridin-2-yl)amino)-7,8-dihydropyrido[2,3-d]pyrimidine-6-carbonitrile]	39.3	61.9
N#Cc1cc2cnc(Nc3ccc(N4CCN5CCC4CC5)cn3)nc2n(C2CCCC2)c1=O [Compound B13, 2-((5-(1,4-diazabicyclo[3.2.2]nonan-4-yl)pyridin-2-yl)amino)-8-cyclopentyl-7-oxo-7,8-dihydropyrido[2,3-d]pyrimidine-6-carbonitrile]	571	798
N#Cc1cc2cnc(Nc3ccc(N4CCNCC4)c(F)c3)nc2n(C2CCCC2)c1=O [Compound B14, 8-cyclopentyl-2-((3-fluoro-4-(piperazin-1-yl)phenyl)amino)-7-oxo-7,8-dihydropyrido[2,3-d]pyrimidine-6-carbonitrile]	2.03	7.27
CN(C)CCOc1ccc(Nc2ncc3cc(C#N)c(=O)n(C4CCCC4)c3n2)cc1 [Compound B15, 8-cyclopentyl-2-((4-(2-(dimethylamino)ethoxy)phenyl)amino)-7-oxo-7,8-dihydropyrido[2,3-d]pyrimidine-6-carbonitrile]	4.62	14.3
CC(C)N1CCN(c2ccc(Nc3ncc4cc(C#N)c(=O)n(C5CCCC5)c4n3)cc2)CC1 [Compound B16, 8-cyclopentyl-2-((4-(4-isopropylpiperazin-1-yl)phenyl)amino)-7-oxo-7,8-dihydropyrido[2,3-d]pyrimidine-6-carbonitrile]	1.8	6.32
CN1CCN(c2ccc(Nc3ncc4cc(C#N)c(=O)n(C5CCCC5)c4n3)cc2F)CC1 [Compound B17, 8-cyclopentyl-2-((3-fluoro-4-(4-methylpiperazin-1-yl)phenyl)amino)-7-oxo-7,8-dihydropyrido[2,3-d]pyrimidine-6-carbonitrile]	1.78	7.71
CC(C)N1CCN(c2ccc(Nc3ncc4cc(C#N)c(=O)n(C5CCCC5)c4n3)cc2F)CC1 [Compound B18, 8-cyclopentyl-2-((3-fluoro-4-(4-isopropylpiperazin-1-yl)phenyl)amino)-7-oxo-7,8-dihydropyrido[2,3-d]pyrimidine-6-carbonitrile]	2.31	10.4
CC(C)N1CCN(c2ccc(Nc3ncc4cc(C#N)c(=O)n(C5CCCC5)c4n3)c(F)c2)CC1 [Compound B19, 8-cyclopentyl-2-((2-fluoro-4-(4-isopropylpiperazin-1-yl)phenyl)amino)-7-oxo-7,8-dihydropyrido[2,3-d]pyrimidine-6-carbonitrile]	69.1	89.8
N#Cc1cc2cnc(N3CCC(N4CCOCC4)CC3)nc2n(C2CCCC2)c1=O [Compound B20, 8-cyclopentyl-2-(4-morpholinopiperidin-1-yl)-7-oxo-7,8-dihydropyrido[2,3-d]pyrimidine-6-carbonitrile]	15700	≥ 30000
N#Cc1ccc(N2CCN(c3ncc4cc(C#N)c(=O)n(C5CCCC5)c4n3)CC2)cc1 [Compound B21, 2-(4-(4-cyanophenyl)piperazin-1-yl)-8-cyclopentyl-7-oxo-7,8-dihydropyrido[2,3-d]pyrimidine-6-carbonitrile]	> 30000	> 30000
N#Cc1cc2cnc(Nc3ccc(N4CCNCC4)nc3)nc2n(C2CCCC2)c1=O [Compound B22, 8-cyclopentyl-7-oxo-2-((6-(piperazin-1-yl)pyridin-3-yl)amino)-7,8-dihydropyrido[2,3-d]pyrimidine-6-carbonitrile]	6.93	19.7
CN1CCN(c2ccc(Nc3ncc4cc(C#N)c(=O)n(C5CCCC5)c4n3)cn2)CC1 [Compound B23, 8-cyclopentyl-2-((6-(4-methylpiperazin-1-yl)pyridin-3-yl)amino)-7-oxo-7,8-dihydropyrido[2,3-d]pyrimidine-6-carbonitrile]	11.5	33.2
N#Cc1cc2cnc(Nc3ccc(N4CCOCC4)c(F)c3)nc2n(C2CCCC2)c1=O [Compound B24, 8-cyclopentyl-2-((3-fluoro-4-morpholinophenyl)amino)-7-oxo-7,8-dihydropyrido[2,3-d]pyrimidine-6-carbonitrile]	11.1	35.8
CC(C)N1CCN(c2ccc(Nc3ncc4cc(C#N)c(=O)n(C5CCCC5)c4n3)nc2)CC1 [Compound B25, 8-cyclopentyl-2-((5-(4-isopropylpiperazin-1-yl)pyridin-2-yl)amino)-7-oxo-7,8-dihydropyrido[2,3-d]pyrimidine-6-carbonitrile]	7.51	19
N#Cc1cc2cnc(Nc3ccc(N4CCNCC4)cc3F)nc2n(C2CCCC2)c1=O [Compound B26, 8-cyclopentyl-2-((2-fluoro-4-(piperazin-1-yl)phenyl)amino)-7-oxo-7,8-dihydropyrido[2,3-d]pyrimidine-6-carbonitrile]	15.4	36.8
CN1CCN(c2ccc(Nc3ncc4cc(C#N)c(=O)n(C5CCCC5)c4n3)c(F)c2)CC1 [Compound B27, 8-cyclopentyl-2-((2-fluoro-4-(4-methylpiperazin-1-yl)phenyl)amino)-7-oxo-7,8-dihydropyrido[2,3-d]pyrimidine-6-carbonitrile]	457	1400
N#Cc1cc2cnc(Nc3ccc(OCCN4CCCC4)nc3)nc2n(C2CCCC2)c1=O [Compound B28, 8-cyclopentyl-7-oxo-2-((6-(2-(pyrrolidin-1-yl)ethoxy)pyridin-3-yl)amino)-7,8-dihydropyrido[2,3-d]pyrimidine-6-carbonitrile]	45	120
CC(C)N1CCN(c2cnc(Nc3ncc4cc(C#N)c(=O)n(C5CCCC5)c4n3)cc2C(F)(F)F)CC1 [Compound B29, 8-cyclopentyl-2-((5-(4-isopropylpiperazin-1-yl)-4-(trifluoromethyl)pyridin-2-yl)amino)-7-oxo-7,8-dihydropyrido[2,3-d]pyrimidine-6-carbonitrile]	> 30000	> 30000
